Laboratory results reported in US8354441B2, “Oxazoline derivatives” (Hoffmann-La Roche Inc., priority 2009, dated 2013).

Assays:
[1] = target: T1, mouse TAAR1 (Mus musculus, UniProt Q923Y8); experiment: TAAR1 radioligand binding with [3H]-rac-2-(1,2,3,4-tetrahydro-1-naphthyl)-2-imidazoline, membranes of stably transfected HEK293 cells; conditions: first value of the cell, read-out: Ki (μM) mouse/rat: mouse
T1 construct: expressed in transfected cells; host or cells: HEK293 (ATCC # CRL-1573), stably transfected with pIRESneo2 expression plasmid
T1 sequence (Q923Y8 whole entry): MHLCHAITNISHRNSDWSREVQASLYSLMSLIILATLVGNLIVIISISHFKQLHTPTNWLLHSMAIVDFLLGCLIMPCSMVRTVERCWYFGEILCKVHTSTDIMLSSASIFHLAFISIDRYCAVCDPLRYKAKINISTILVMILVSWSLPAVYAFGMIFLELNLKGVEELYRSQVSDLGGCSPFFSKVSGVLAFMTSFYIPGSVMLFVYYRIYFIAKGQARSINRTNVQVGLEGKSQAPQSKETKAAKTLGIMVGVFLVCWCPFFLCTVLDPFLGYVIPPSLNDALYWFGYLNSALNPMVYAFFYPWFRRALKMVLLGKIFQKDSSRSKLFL
Method in brief: (§1)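 Competition binding: competitors spanning 10 pM–30 μM displace 60 nM [3H]-rac-2-(1,2,3,4-tetrahydro-1-naphthyl)-2-imidazoline from stably transfected HEK293 membranes (mouse or rat receptor), 30 min, 4 °C, pH 7.0 buffer with Mg2+/Ca2+. Bound label counted after GF/C filtration; 10 μM unlabelled ligand defines non-specific binding.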

[2] = target: T2, rat TAAR1 (Rattus norvegicus, UniProt Q923Y9); experiment: as above; conditions: second value of the cell, read-out: Ki (μM) mouse/rat: rat
T2 construct: expressed in transfected cells; host or cells: HEK293 (ATCC # CRL-1573), stably transfected with pIRESneo2 expression plasmid
T2 sequence (Q923Y9 whole entry): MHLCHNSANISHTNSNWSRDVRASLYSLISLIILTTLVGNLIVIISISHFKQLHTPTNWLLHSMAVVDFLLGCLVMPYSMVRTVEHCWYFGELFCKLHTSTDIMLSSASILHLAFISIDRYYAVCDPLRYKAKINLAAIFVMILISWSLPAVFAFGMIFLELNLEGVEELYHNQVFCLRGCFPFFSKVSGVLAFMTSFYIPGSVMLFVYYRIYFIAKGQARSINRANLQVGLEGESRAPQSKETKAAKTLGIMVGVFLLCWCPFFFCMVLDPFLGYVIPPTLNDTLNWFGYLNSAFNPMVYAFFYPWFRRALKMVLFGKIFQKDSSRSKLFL
Method in brief: as §1

Ki [1]	Ki [2]	Compound
0.007 µM	0.0059 µM	CCc1cnc(C(=O)Nc2ccc(CC[C@@H]3N=C(N)O[C@H]3C)cc2)cn1 [Example 227, 5-Ethyl-pyrazine-2-carboxylic acid {4-[2-((4S,5S)-2-amino-5-methyl-4,5-dihydro-oxazol-4-yl)-ethyl]-phenyl}-amide]
0.0009 µM	0.0016 µM	CC(C)c1cncc(C(=O)Nc2ccc(CC[C@H]3COC(N)=N3)cc2)n1 [Example 230, (S)-N-(4-(2-(2-Amino-4,5-dihydrooxazol-4-yl)ethyl)phenyl)-6-isopropylpyrazine-2-carboxamide]
0.0009 µM	0.0013 µM	COc1cc(C(=O)Nc2ccc(CC[C@H]3COC(N)=N3)cc2)nc(Cl)n1 [Example 231, 2-Chloro-6-methoxy-pyrimidine-4-carboxylic acid {4-[2-((S)-2-amino-4,5-dihydro-oxazol-4-yl)-ethyl]-phenyl}-amide]
